Reference: US20250034127A1, “AUTOPHAGY INDUCING COMPOUNDS AND USES THEREOF, IN PARTICULAR FOR DISEASES OF THE CNS” (Samsara Therapeutics Inc., priority 2021, published 2025)
Where two headings read alike, the source gives them in different places.

Assays:
[1] = tested on: primary spinal cord lower motor neurons (MNs) from SOD1 G93A Tg rats; assay: Cellular model of Amyotrophic Lateral Sclerosis (glutamate injury); format: cell-based, rat
Experimental: Compounds 157 (particularly) preferred), 185 and 196 were selected example compounds if this invention to evaluate in this model. This model (run by Neuro-Sys SAS, France) evaluates the protective effects of test compounds on primary spinal cord lower motor neurons (MNs) from SOD1 G93A Tg rats, after a glutamate injury. The MNs are pre-treated with the test compounds for 1 hour prior to exposure to glutamate, and readouts are measured 24 hours later. This model functions as an in vitro model of Amyotrophic Lateral Sclerosis. […] Any substances which can attenuate one or more of these effects can be considered to have protective effects in the model and may be useful as a new therapeutic agent for the treatment or prevention of ALS.
Genotyping of SOD1 Tg embryos: Pregnant female rat SODIG93A (Sprague Dawley, Taconic), of 14 days of gestation were obtained fromTaconic Bioscience. On the day of the dissection (from pregnant females at 14 days of gestation), a piece of each embryo brain (˜3 mm) was placed in a 2 mL tube free DNase with a new scalpel. The DNA was extracted with the SYBR Green Extract-N-Amp tissue PCR kit (Sigma Aldrich). Briefly, 120 μL of extraction solution was put on each piece of embryo heads. Then, they were incubated for 10 min at room temperature. At the end of this incubation period, the heads were incubated for 5 min at 95° C. Immediately after this last incubation, 100 μL of neutralizing solution was added; each DNA extract was diluted at 1/40 and stored at +4° C. until use. SOD1G93A gene was determined using genomic fragment with human SOD1 primers (5′-[…]-3′ (SEQ ID NO: 1); 5′-[…]-3′ (SEQ ID NO: 2)). The SOD1 primers were diluted at 3 μM in sterile ultrapure water. Briefly, a mix for PCR was prepared with ultrapure water (4 μL per sample), primer at 3 μM (2 μL per sample) and Master Mix (10 μL per sample). In a PCR 96 wells plate, 16 μL of PCR mix was added in each well. 4 μL of each diluted DNA was added according to a plan deposit. The RT-PCR was ran using the CFX96 Biorad RT-PCR system, using the following program: Initial denaturation (95° C., 20 sec)/45 cycles (95° C., 10 sec; 65° C., 10 sec; 72° C., 30 sec)/Melt curve (95° C., 15 sec; 64° C., 1 min; 90° C., 30 sec; 60° C. 15 sec). The amplification plots and melt curves were analyzed with the Biorad software. The results for each sample were compared to negative control (ultrapure water) and to the positive control (DNA from Tg embryos).
Rat spinal cord motor neurons (MNs) were be cultured as described by Wang et al. 2013 and Boussicault et al., 2020. Briefly, pregnant female rats of 14 days gestation (Sprague Dawley; Taconic) were killed using a deep anesthesia with CO2 chamber and a cervical dislocation. Then, fetuses were removed from the uterus and immediately placed in ice-cold L15 Leibovitz medium with a 2% penicillin (10,000 U/ml) and streptomycin (10 mg/ml) solution (PS) and 1% bovine serum albumin (BSA).
Spinal cords were treated for 20 min at 37° C. with a trypsin-EDTA solution at a final concentration of 0.05% trypsin and 0.02% EDTA. The dissociation was stopped by addition of Dulbecco's modified Eagle's medium (DMEM) with 4.5 g/liter of glucose, containing DNAse I grade II (final concentration 0.5 mg/mL) and 10% fetal calf serum (FCS). Cells were mechanically dissociated by three forced passages through the tip of a 10-ml pipette. Cells were then centrifuged at 515×g for 10 min at 4° C. The supernatant was discarded, and the pellet was resuspended in a defined culture medium consisting of Neurobasal medium with a 2% solution of B27 supplement, 2 mmol/liter of L-glutamine, 2% of PS solution, and 10 ng/ml of brain-derived neurotrophic factor (BDNF). Viable cells were counted in a Neubauer cytometer, using the trypan blue exclusion test. The cells were seeded at a density of 20,000 per well in 96-well plates precoated with poly-L-lysine and will be cultured at 37° C. in an air (95%)—CO2 (5%) incubator. […]

[2] = Bioavailability / brain and plasma pharmacokinetics after oral dosing; format: in vivo; details: CD1 mice; for half-life / bioavailability: mouse
Description: The compounds according to the invention have good properties for oral dosing and readily cross the blood brain barrier.

[3] = tested on: primary culture of dopaminergic Tyrosine hydroxylase (TH)-positive neurons; assay: Cellular model of Parkinson's disease (MPTP/MPP+ injury); format: cell-based, rat; details: for decrease in α-syn area per dopaminergic TH positive neuron / increase in the length of the neurite network of dopaminergic TH positive neurons / increase in the number of dopaminergic TH positive neurons: compared to MPP+ injury alone
Description: This model (run by Neuro-Sys SAS, France) is based on a primary culture of dopaminergic Tyrosine hydroxylase (TH)-positive neurons injured with the dopaminergic neurons-specific toxin (DA-toxin) 1-methyl-4-phenyl-1,2,3,6 tetrahydropyridine (MPTP, a prodrug of MPP^+) (Dauer and Przedborski, 2003). Any substances reducing DA-toxin neurotoxicity may be useful as a new therapeutic agent for the treatment or prevention of PD.
Primary culture of mesencephalic neurons: Rat dopaminergic neurons were cultured as described by Visanji et al., 2008 and Callizot et al., 2019. Briefly, pregnant female rat (Wistar) of 15 days of gestation were killed using a deep anesthesia with CO2 chamber and a cervical dislocation. The midbrains obtained from 15-day-old rat embryos (Janvier, France) were dissected under a microscope. The embryonic midbrains will be removed and placed in ice-cold medium of Leibovitz (L15) containing 2% of Penicillin-Streptomycin (PS) and 1% of bovine serum albumin (BSA). The ventral portion of the mesencephalic flexure, a region of the developing brain rich in dopaminergic neurons, was used for the cell preparations.
The midbrains were dissociated by trypsinisation for 20 min at 37° C. (solution at a final concentration of 0.05% trypsin and 0.02% EDTA). The reaction was stopped by the addition of Dulbecco's modified Eagle's medium (DMEM) containing DNAase I grade II (0.5 mg/mL) and 10% of foetal calf serum (FCS). Cells were then mechanically dissociated by 3 passages through a 10 ml pipette. Cells were then centrifuged at 180×g for 10 min at +4° C. on a layer of BSA (3.5%) in L15 medium. The supernatant was discarded, and the cell pellets re-suspended in a defined culture medium consisting of Neurobasal supplemented with B27 (2%), L-glutamine (2 mM) and 2% of PS solution and 10 ng/mL of Brain-derived neurotrophic factor (BDNF) and 1 ng/ml of Glial-Derived Neurotrophic Factor (GDNF). Viable cells were counted in a Neubauer cytometer using the trypan blue exclusion test. The cells were seeded at a density of 40,000 cells/well in 96 well-plates (pre-coated with poly-L-lysine) and maintained in a humidified incubator at 37° C. in 5% CO2/95% air atmosphere. Half of the medium was changed every 2 days with fresh medium. The wells of first and last lines and columns […] (to avoid any edge effect) and were be filled with sterile water.
• i) Pre-incubation. On day 6 of culture, the test compounds were dissolved in PBS or DMSO and incubated for 1 hour before the MPTP exposure. • ii) Injury. One hour after the application of test compound, MPTP was added to a final concentration of 4 μM, diluted in control medium still in presence of compounds/inhibitors for 48 h. Test compounds were tested on one culture in 96-well plate (n=6 culture wells per condition).
Immunostaining: TH and α-Synuclein. 48 Hours after intoxication, the cell culture supernatant was removed, and the cells were fixed by a solution of 4% paraformaldehyde in PBS, pH=7.3 for 20 min at room temperature. The cells were washed twice in PBS, and then permeabilized. Non-specific sites were blocked with a solution of PBS containing 0.1% of saponin and 1% FCS for 15 min at room temperature. The cultures were incubated with: (a) monoclonal anti-Tyrosine Hydroxylase (TH) antibody produced in mouse at dilution of 1/10000 in PBS containing 1% FCS, 0.1% saponin, for 2 hours at room temperature, and (b) polyclonal anti-alpha synuclein (α-synuclein) antibody produced in rabbit at dilution of 1/200 in PBS containing 1% FCS, 0.1% saponin, for 2 h at room temperature.
Automatic computer analysis. For each condition, 20 pictures (representing the whole well area) were automatically taken using ImageXpress® (Molecular Devices) at 10× magnification (20 pictures, for TH and α-synuclein into TH neurons) using the same acquisition parameters. From images, analyses was directly and automatically performed by MetaXpress® (Molecular Devices). […]

[4] = brain, oral dose of 30 mg/kg, read-out: half-life in the brain (converted)
[5] = plasma, oral, 30 mg/kg, read-out: half-life in plasma (converted)

Row | maximum concentration in brain plasma ([2]; oral dose of 30 mg/kg) | time of maximum concentration in brain plasma ([2]; oral dose of 30 mg/kg) | half-life [2, 4] | bioavailability ([2]; plasma, 30 mg/kg, oral) | half-life [2, 5] | SMILES | effects in the in vitro model of ALS [1] | increase in neurite network length ([1]; 0.1 μM, 0.5 μM and 1 μM, compared to glutamate injury alone) | abnormal TDP43 accumulation in the cytoplasm resulting from glutamate injury ([1]; 0.1 μM, 0.5 µM, 1 μM and 10 μM) | effects in the in vitro model of PD based on MPP+ injury [3] | decrease in α-syn area per dopaminergic TH positive neuron ([3]; 1 μM) | increase in the length of the neurite network of dopaminergic TH positive neurons ([3]; 1 μM) | increase in the number of dopaminergic TH positive neurons ([3]; 1 μM) | abnormal cytoplasmic TDP-43 accumulation resulting from glutamate injury ([1]; 0.1 μM, 0.5 µM and 1 μM) | decrease in α-syn area per dopaminergic TH positive neuron ([3]; 500 nM, 1 μM and 10 μM) | increase in the length of the neurite network of dopaminergic TH positive neurons ([3]; 500 nM, 1 μM and 10 μM) | increase in the number of dopaminergic TH positive neurons ([3]; 500 nM, 1 μM and 10 μM)
1 | 2153 ng/mL | 1.5 h | 1.8 h | 81% | 1.8 h | C[C@H]1CN(C(=O)c2csc(-c3cnn(-c4ccccc4)c3)n2)CCN1 [Compound 157, (3S)-3-methyl-1-[2-(1-phenyl-1H-pyrazol-4-yl)-1,3-thiazole-4-carbonyl]piperazine] | positive effects | > 20% | fully abolished | positive effects | 21% | 35% | 27% |  |  |  | 
2 | 3457 ng/mL | 1 h | 13 h | 100% | 18 h | CCN1CCC(NC(=O)c2csc(-c3cnn(-c4ccccc4)c3)n2)CC1 [Compound 185, N-(1-ethylpiperidin-4-yl)-2-(1-phenyl-1H-pyrazol-4-yl)-1,3-thiazole-4-carboxamide] | positive effects |  |  | positive effects |  |  |  | fully abolished | > 14% | > 27% | > 22%
